Laboratory results: publication PMC9506420, “Biological Evaluation of 3-Azaspiro[Bicyclo[3.1.0]Hexane-2,5′-Pyrimidines] as Potential Antitumor Agents” (International Journal of Molecular Sciences, 2022)
Like-named read-outs stand apart in the source and are kept apart here.

Tests used:
[1] = system: human T lymphocyte (Jurkat) cell line; test: MTS antiproliferative (cytotoxicity) assay, Jurkat; format: cell-based; conditions: for IC50: Homo sapiens, MTS; for SI (selectivity index), Jurkat: Vero as reference cell line
Description: The cytotoxicity of synthesized 3-azaspiro[bicyclo[3.1.0]hexane-2,5′-pyrimidines] 4 against human erythroleukemia (K562), cervical carcinoma (HeLa), and T lymphocyte (Jurkat), as well as mouse colon carcinoma (CT26) and African green monkey kidney epithelial (Vero) cell lines as reference, was evaluated in vitro by the standard MTS assay for 24 and 72 h. The results are presented in Figure 1, Figure 2, Figure 3, Figure 4 and Figure 5 (data on all, tested on K562, HeLa, and CT26 cell lines’ compounds, are given at SI, Figures S1–S3). […] Replacement of the phenyl group by either the carboxymethyl or N-isopropylcarbamoyl group has led to a significant decrease in the activity of spiro-fused cycloadducts comprising azabicyclo[3.1.0]hexane and alloxane moieties.
All the cell lines (human cervical carcinoma (HeLa), erythroleukemia (K-562), and T lymphocyte (Jurkat) as well as mouse colon carcinoma (CT26) and African green monkey kidney epithelial (Vero)) were obtained from the cell repository “Vertebrate cell culture collection” (supported by the Ministry of Science and Higher Education of the Russian Federation, agreement №075-15-2021-683, Institute of Cytology, Russian Academy of Sciences, Saint Petersburg, Russia). HeLa, Jurkat, and Vero cells were cultured in DMEM (HyClone, South Logan, UT, USA) supplemented with 10% (v/v) fetal bovine serum (Hyclone, GE Healthcare Life Sciences, Logan, UT, USA), and gentamicin (Sigma-Aldrich, St. Louis, MO, USA) at 37 °C in a humidified atmosphere with 5% CO2. K-562 and CT26 cells were grown at RPMI medium (Hyclone, GE Healthcare Life Sciences, Logan, UT, USA), with the same supplements and conditions.
To evaluate the in vitro toxicity of compounds synthesized, cells were seeded into 96-well plates at a density of 5 × 10^3 cells per well. On the next day, tested compounds were added to the wells at concentrations ranging from […], followed by incubation for 1 and 3 days. Cell proliferation was determined by adding 20 μL of MTS reagent (BioVision, Milpitas, CA, USA) stock solution per well. Each plate was incubated for 2 h at 37 °C in a humidified, 5% CO2 atmosphere. The plates were then read at 495 nm using plate spectrophotometer (Multiskan GO, Thermo Fisher Scientific, Waltham, MA, USA). All samples were measured in triplicates.

Vero cells = test: Actin cytoskeleton staining (rhodamine-phalloidin, confocal microscopy), Vero; format: cell-based, African green monkey; conditions: 5 μg/mL, 24 h
Description: Therefore, in the current study, the actin cytoskeleton structure of HeLa, CT26, and Vero cells was analyzed, after the impact of compounds 4a–i, by the presence of filopodia-like protrusions and the availability of stress fibers (Figure 14, Figure 15 and Figure 16). […] HeLa cells were more sensitive to the action of tested products, compared to CT26 and Vero cells.
Cells were seeded onto Petri dishes with cover slips at a density of 2 × 10^5 cells per dish and incubated for 24 h. After that, cells were treated with compounds 4d, 4e, 4f, 4h, and 4i (5 μg/mL) for 24 h. The medium was removed, and cells were fixed with 4% paraformaldehyde (Sigma-Aldrich, St. Louis, MO, USA), washed three times with PBS, and permeabilized with 0.3% Triton-X100 (Sigma-Aldrich, St. Louis, MO, USA). The cells were rinsed three times with PBS. Actin filaments (microfilaments) were stained at 37 °C for 15 min with rhodamine-phalloidin (Invitrogen, Carlsbad, CA, USA). The samples were rinsed three times with PBS, followed by embedding in Fluoroshield medium (Sigma-Aldrich, St. Louis, MO, USA). Cells were imaged using an Axio Observer Z1 confocal microscope (Carl Zeiss MicroImaging GmbH, Jena, Germany). In each experiment, at least 30 cells were imaged. Images were analyzed by a pathologist, blinded to the treatment mode used for each group, using ImageJ software.

CT26 tumor = test: In vivo evaluation in CT26 tumor-bearing Balb/C mice; conditions: for death of experimental animals by the end of the observation period: n = 7 per group, single i.p. 300 μL of 3 μM suspension, 10 days, control group one animal; for autopsy finding in the abdominal cavity (agglomerates of injected material): autopsy at end of experiment, diameter of up to 1 mm
Description: In vivo studies were performed using CT26 tumor-bearing Balb/C mice. After the average tumor volume reached approximately 270 mm^3, the mice were injected intraperitoneally with 300 μL of 3 μM suspension of compounds 4d, 4e, 4f, and 4i in 10% aq. DMSO solution. Mice in the control group were injected with 300 μL of 10% aq. DMSO solution. Observation of the animals continued for 10 days, with the measurement of tumor sizes two times a week.
All animals were bred and maintained in specific pathogen-free facilities in accordance with the Rus-LASA and FELASA guidelines. This study complied with all relevant ethical regulations for animal testing and research and received ethical approval from the Almazov National Medical Research Centre (protocol No. 21-02, dated 26 March 2021). Animal experiments were carried out in accordance with the principles of humane treatment of animals, regulated by requirements of Council of Europe 2006; European Convention for the Protection of Vertebrate Animals Used for Experimental and other Scientific Purposes (ETS No. 123); the European Parliament and the Council of the European Union 2010; Directive 2010/63/EU of the European Parliament and of the Council of 22 September 2010 on the Protection of Animals Used for Scientific Purposes; and FELASA guidelines. Male, 20–22 g, SPF Balb/C mice (Pushchino, Moscow region, Russian Federation) were used throughout. Animals were maintained at 22 ± 2 °C and relative humidity 50 ± 10% with 12 h light/dark cycle. All mice received water and food ad libitum. Animals were checked daily by the veterinarian, and their state of health was monitored continuously. Animal body weight was recorded every three days (GX-600 Precision Balance, A&D Weighing, San Jose, CA, USA).
The greatest transverse diameter (width) and the greatest longitudinal diameter (length) of a tumor were determined with a Vernier mechanical caliper. The tumor volume (V) was calculated using the following formula: V = length × width 2/2000 [50]. Mice were inoculated subcutaneously in the right flank, with 2 × 10^6 CT26 cells per mouse in PBS (Corning, Glendale, AZ, USA). Ten days later, when the average tumor volume reached […], the mice were randomized into groups (n = 7 per group). An amount of 300 μL of 3 μM suspension of compounds 4d, 4e, 4f, and 4i in 10% aq. DMSO solution was injected intraperitoneally at once. The control group was injected with 10% aq. DMSO solution only. The tumor volumes were monitored as described above, along with body weight. Mice were euthanized when the subcutaneous tumor reached a volume of […].

[2] = 24 h, read-out: IC50, Jurkat, 24 h
[3] = 72 h, read-out: IC50, Jurkat, 72 h

CC[C@@H]1NC2(C(=O)NC(=O)NC2=O)[C@]2(c3ccccc3)[C@@H](c3ccccc3)[C@]12c1ccccc1 [Compound 4c] was tested, and the IC50 [1, 2] was 149 ± 33 µM, the IC50 [1, 3] was 15 ± 2 µM and the “SI (selectivity index), Jurkat” value [1] was 1.1.

For CCC[C@@H]1NC2(C(=O)NC(=O)NC2=O)[C@]2(c3ccccc3)[C@@H](c3ccccc3)[C@]12c1ccccc1 [Compound 4d], the IC50 [1, 2] was 15 ± 2 µM, the IC50 [1, 3] was 13 ± 2 µM and the “SI (selectivity index), Jurkat” value [1] was 1.3. For the same compound, the “percentage of cells with disassembled stress fibers (D)” value (“percentage of cells … (D)” for short) (Vero cells) was 6%, the “percentage of cells with filopodia-like deformations (A)” value (“percentage of cells … (A)” below) (Vero cells) was 45% and the “percentage of cells with normal stress fibers (C)” value (shortened to “percentage of cells … (C)”) (Vero cells) was 94%. The “percentage of cells without filopodia-like deformations (B)” value (Vero cells) was 55%, the “death of experimental animals by the end of the observation period” value (“death of experimental animals” for short) (CT26 tumor) was “No deaths” and the “autopsy finding in the abdominal cavity (agglomerates of injected material)” value (from here on “autopsy finding in the abdominal cavity”) (CT26 tumor; single i.p. injection) was “persistent, rounded, dense agglomerates of white or yellowish-white foreign material”.

For CCCC[C@@H]1NC2(C(=O)NC(=O)NC2=O)[C@]2(c3ccccc3)[C@@H](c3ccccc3)[C@]12c1ccccc1 [Compound 4e], the IC50 [1, 2] was 12 ± 2 µM, the IC50 [1, 3] was 9 ± 2 µM and the “SI (selectivity index), Jurkat” value [1] was 1.2. The “percentage of cells … (D)” value (Vero cells) was 11%, the “percentage of cells … (A)” value (Vero cells) was 44% and the “percentage of cells … (C)” value (Vero cells) was 89%. For the same compound, the “percentage of cells without filopodia-like deformations (B)” value (Vero cells) was 56%, the “death of experimental animals” value (CT26 tumor) was “two” and the “autopsy finding in the abdominal cavity” value (CT26 tumor; single i.p. injection) was “persistent, rounded, dense agglomerates of white or yellowish-white foreign material”. The “macroscopic signs of acute toxicity at autopsy” value (CT26 tumor; single i.p. injection, autopsy of abdominal organs) was “No signs of acute intoxication”.

With CC(C)C[C@@H]1NC2(C(=O)NC(=O)NC2=O)[C@]2(c3ccccc3)[C@@H](c3ccccc3)[C@]12c1ccccc1 [Compound 4f] the IC50 [1, 2] was 11 ± 2 µM, the IC50 [1, 3] was 9 ± 2 µM and the “SI (selectivity index), Jurkat” value [1] was 1.2. For the same compound, the “percentage of cells … (D)” value (Vero cells) was 4%, the “percentage of cells … (A)” value (Vero cells) was 43% and the “percentage of cells … (C)” value (Vero cells) was 96%. For the same compound, the “percentage of cells without filopodia-like deformations (B)” value (Vero cells) was 57% and the “death of experimental animals” value (CT26 tumor) was “one”.

For CCCCCC[C@@H]1NC2(C(=O)NC(=O)NC2=O)[C@]2(c3ccccc3)[C@@H](c3ccccc3)[C@]12c1ccccc1 [Compound 4g], the IC50 [1, 2] was 11 ± 2 µM, the IC50 [1, 3] was 8 ± 2 µM and the “SI (selectivity index), Jurkat” value [1] was 1.8.

With CSCC[C@@H]1NC2(C(=O)NC(=O)NC2=O)[C@]2(c3ccccc3)[C@@H](c3ccccc3)[C@]12c1ccccc1 [Compound 4h] the IC50 [1, 2] was 18 ± 4 µM, the IC50 [1, 3] was 13 ± 4 µM and the “SI (selectivity index), Jurkat” value [1] was 1.7. The “percentage of cells … (D)” value (Vero cells) was 8%, the “percentage of cells … (A)” value (Vero cells) was 46% and the “percentage of cells … (C)” value (Vero cells) was 92%. The “percentage of cells without filopodia-like deformations (B)” value (Vero cells) was 54%.

O=C1NC(=O)C2(N[C@@H](c3ccccc3)[C@@]3(c4ccccc4)[C@H](c4ccccc4)[C@@]23c2ccccc2)C(=O)N1 [Compound 4i] was tested, and the IC50 [1, 2] was 19 ± 2 µM, the IC50 [1, 3] was 14 ± 4 µM and the “SI (selectivity index), Jurkat” value [1] was 1.7. The “percentage of cells … (D)” value (Vero cells) was 2%, the “percentage of cells … (A)” value (Vero cells) was 30% and the “percentage of cells … (C)” value (Vero cells) was 98%. The “percentage of cells without filopodia-like deformations (B)” value (Vero cells) was 70%, the “death of experimental animals” value (CT26 tumor) was “three” and the “autopsy finding in the abdominal cavity” value (CT26 tumor; single i.p. injection) was “persistent, rounded, dense agglomerates of white or yellowish-white foreign material”.
